US20230338307A1, “PROPHYLACTIC AGENT, AMELIORATING AGENT, AND THERAPEUTIC AGENT FOR DRY EYE” (TSUBOTA LABORATORY, INC., priority 2020, published 2023)

Tested on: dry eye model
Test: Schirmer test (tear volume), benzalkonium chloride dry eye model, Comparative Study 1 (Example 4)
Assay type: in vivo, mice
Settings: 0.1% (w/v) apocynin in 0.5% methylcellulose twice a day, 3 days after start; versus 0.5% (w/v) hyaluronic acid group; FIG. 8
Protocol: After acclimating male C57BL6 mice (7 weeks old) to the experimental environment, those with almost uniform weight values and no eye abnormalities were divided into the following groups (n=4). • 7 weeks old/normal (non-dry eye group) • 7 weeks old/dry eye model+control (solvent eye drop) group • 7 weeks old/dry eye model+0.1% (w/v) apocynin eye drop group • 7 weeks old/dry eye model+0.5% (w/v) hyaluronic acid eye drop group A dry eye model was prepared by instilling the benzalkonium chloride solution at 3 μL each eye, twice a day for 8 days. After that, the control group received the 0.5% methylcellulose solution alone, and the test group received 0.1% (w/v) apocynin or 0.5% (w/v) hyaluronic acid suspended in the 0.5% methylcellulose solution twice a day for 15 days at 3 μL for each of both eyes. Schirmer's test was performed 1, 3, 6, and 8 days after the start of instillation of the comparative test drug, and tear volume was evaluated.

COc1cc(C(C)=O)ccc1O [apocynin, 4-hydroxy-3-methoxyacetophenone]
tear volume (Schirmer test): marked improvement in the tear volume compared to the hyaluronic acid eye drop group
